Consider 1 molecule from patent US12077503B2, “Substituted cyclic amides and their use as herbicides” (FMC CORPORATION, priority 2015, dated 2024).

Holding throughout (type): in vivo
Experiment [1] concerns Galium (catchweed bedstraw, Galium aparine). The experiment can be described thus: Test A postemergence. The settings on record: Galium, post-emergence, 240 h. A digest of the protocol:
(§1)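 Greenhouse, ~10 d after spray; visual injury vs untreated controls, 0 = no effect, 100 = complete control. Preemergence: directed soil spray over planted seeds. Postemergence: plants 2–10 cm, 1–2 leaf stage. Loam/sand blend. Compound in non-phytotoxic solvent with surfactant.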

The subject of experiment [2] is Kochia (Kochia scoparia). The experiment can be described thus: Test A postemergence. The settings on record: Bassia scoparia, post-emergence, 240 h. A digest of the protocol: as §1
Experiment [3] relates to barnyardgrass (Echinochloa crus-galli). Put plainly: Test A postemergence. The settings on record: Echinochloa crus-galli, post-emergence, 240 h. An outline of the steps: as §1
Experiment [4] deals with blackgrass (Alopecurus myosuroides). The experiment can be described thus: Test A postemergence. The following applies: Alopecurus myosuroides, post-emergence, 240 h. An outline of the steps:
as §1

Experiment [5] relates to corn (Zea mays). The experiment can be described thus: Test A postemergence. The following applies: Zea mays, post-emergence, 240 h. A digest of the protocol:
as §1

In experiment [6] the test system is giant foxtail (Setaria faberii). Put plainly: Test A postemergence. The following applies: Setaria faberi, post-emergence, 240 h. An outline of the steps: as §1
The subject of experiment [7] is pigweed (Amaranthus retroflexus). Put plainly: Test A postemergence. The following applies: Amaranthus retroflexus, post-emergence, 240 h. An outline of the steps: as §1
Experiment [8] has as its system ragweed (common ragweed, Ambrosia elatior). The experiment can be described thus: Test A postemergence. The following applies: Ambrosia artemisiifolia, post-emergence, 240 h. A digest of the protocol:
as §1

For experiment [9], the system named is ryegrass, Italian (Italian ryegrass, Lolium multiflorum). Put plainly: Test A postemergence. The settings on record: Lolium multiflorum, post-emergence, 240 h. An outline of the steps:
as §1

For experiment [10], the system named is wheat (Triticum aestivum). Put plainly: Test A postemergence. The settings on record: Triticum aestivum, post-emergence, 240 h. A digest of the protocol:
as §1

The subject of experiment [11] is barnyardgrass (Echinochloa crus-galli). Put plainly: Test B flooded paddy test. The settings on record: Echinochloa crus-galli, Flood, 250 g ai/ha; scale of 0 to 100 where 0 is no effect and 100 is complete control; read-out: Barnyardgrass plant response rating. A digest of the protocol:
(§2)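 Evaluation by eye, against controls, occurred 13–15 d post-treatment in a greenhouse, using a 0 (no effect) to 100 (complete control) scale. Application was into the paddy water, 3 cm deep over the soil, on 2-leaf plants.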

Experiment [12] concerns ducksalad (Heteranthera limosa). Put plainly: Test B flooded paddy test. The following applies: Heteranthera limosa, Flood, 250 g ai/ha; scale of 0 to 100 where 0 is no effect and 100 is complete control; read-out: Ducksalad plant response rating. A digest of the protocol:
as §2

Experiment [13] concerns rice (Oryra sativa). The experiment can be described thus: Test B flooded paddy test. The following applies: Oryza sativa, Flood, 250 g ai/ha; scale of 0 to 100 where 0 is no effect and 100 is complete control; read-out: Rice plant response rating. A digest of the protocol: as §2
The subject of experiment [14] is sedge, umbrella (small-flower umbrella sedge, Cyperus difformis). The experiment can be described thus: Test B flooded paddy test. The settings on record: Cyperus difformis, Flood, 250 g ai/ha; scale of 0 to 100 where 0 is no effect and 100 is complete control; read-out: Sedge, Umbrella plant response rating. A digest of the protocol:
as §2

On to `Cc1cc(F)cc([C@H]2CN(C)C(=O)[C@@H]2C(=O)Nc2cccc(F)c2C)c1` [Compound 802], for which the pest or weed control at 125 g/ha in experiment [1] (125 g ai/ha, postemergence, visual injury rating after approximately 10 d, read-out: Galium plant response rating (0 to 100 scale, 0 no effect, 100 complete control)) turned out to be 60%; in experiment [2] (125 g ai/ha, postemergence, visual injury rating after approximately 10 d, read-out: Kochia plant response rating (0 to 100 scale, 0 no effect, 100 complete control)) it was 40%; in experiment [3] (125 g ai/ha, postemergence, visual injury rating after approximately 10 d, read-out: Barnyardgrass plant response rating (0 to 100 scale, 0 no effect, 100 complete control)) it was 80%; in experiment [4] (125 g ai/ha, postemergence, visual injury rating after approximately 10 d, read-out: Blackgrass plant response rating (0 to 100 scale, 0 no effect, 100 complete control)), 60%; in experiment [6] (125 g ai/ha, postemergence, visual injury rating after approximately 10 d, read-out: Foxtail, Giant plant response rating (0 to 100 scale, 0 no effect, 100 complete control)), 90%; in experiment [7] (125 g ai/ha, postemergence, visual injury rating after approximately 10 d, read-out: Pigweed plant response rating (0 to 100 scale, 0 no effect, 100 complete control)) it was 40%. Further, the pest or weed control at 125 g/ha in [8] (125 g ai/ha, postemergence, visual injury rating after approximately 10 d, read-out: Ragweed plant response rating (0 to 100 scale, 0 no effect, 100 complete control)) turned out to be 30%; in experiment [9] (125 g ai/ha, postemergence, visual injury rating after approximately 10 d, read-out: Ryegrass, Italian plant response rating (0 to 100 scale, 0 no effect, 100 complete control)), 40%. The pest or weed control at 31 g/ha in [1] (Postemergence, 31 g ai/ha, visual injury after approx. 10 d, 0 to 100 scale, 0 no effect, 100 complete control, read-out: Plant response rating, Galium) came to 0%; in [2] (Postemergence, 31 g ai/ha, visual injury after approx. 10 d, 0 to 100 scale, 0 no effect, 100 complete control, read-out: Plant response rating, Kochia), 20%; in [3] (Postemergence, 31 g ai/ha, visual injury after approx. 10 d, 0 to 100 scale, 0 no effect, 100 complete control, read-out: Plant response rating, Barnyardgrass), 80%; in experiment [4] (Postemergence, 31 g ai/ha, visual injury after approx. 10 d, 0 to 100 scale, 0 no effect, 100 complete control, read-out: Plant response rating, Blackgrass), 20%; in [6] (Postemergence, 31 g ai/ha, visual injury after approx. 10 d, 0 to 100 scale, 0 no effect, 100 complete control, read-out: Plant response rating, Foxtail, Giant), 70%; in experiment [7] (Postemergence, 31 g ai/ha, visual injury after approx. 10 d, 0 to 100 scale, 0 no effect, 100 complete control, read-out: Plant response rating, Pigweed) it was 30%. The pest or weed control at 31 g/ha stood at 0% in experiment [8] (Postemergence, 31 g ai/ha, visual injury after approx. 10 d, 0 to 100 scale, 0 no effect, 100 complete control, read-out: Plant response rating, Ragweed) and 0% in experiment [9] (Postemergence, 31 g ai/ha, visual injury after approx. 10 d, 0 to 100 scale, 0 no effect, 100 complete control, read-out: Plant response rating, Ryegrass, Italian). Further, the plant injury at 125 g/ha came out at 70% in experiment [5] (125 g ai/ha, postemergence, visual injury rating after approximately 10 d, read-out: Corn plant response rating (0 to 100 scale, 0 no effect, 100 complete control)) and 30% in experiment [10] (125 g ai/ha, postemergence, visual injury rating after approximately 10 d, read-out: Wheat plant response rating (0 to 100 scale, 0 no effect, 100 complete control)). Besides, the Corn plant response rating (crop injury, 0 = no effect, 100 = complete kill) at 31 g/ha in experiment [5] (Postemergence, 31 g ai/ha, visual injury after approx. 10 d, 0 to 100 scale, 0 no effect, 100 complete control) is 20%. Further, the plant injury at 31 g/ha in experiment [10] (Postemergence, 31 g ai/ha, visual injury after approx. 10 d, 0 to 100 scale, 0 no effect, 100 complete control, read-out: Plant response rating, Wheat) stood at 0%. Besides, the pest or weed control at 250 g/ha in [11] turned out to be 90%; in experiment [12], 100%; in experiment [13], 20%; in [14], 0%.
